In paper PMC10140157, “Molecular determinants for differential activation of the bile acid receptor from the pathogen Vibrio parahaemolyticus” (The Journal of Biological Chemistry, 2023) one finds Kd data, which are given here for five compounds.

Assay [1] has as its target T1, VtrA–VtrC periplasmic domain complex (heterodimer) (Vibrio parahaemolyticus, UniProt Q87GI3+Q87GI4).
T1 construct: gene VPA1333; periplasmic domains: VtrC residues 31-161 with N-terminal His6 tag, coexpressed with VtrA residues 161-253 (pACYC-Duet-VtrC/VtrA, E. coli BL21(DE3)); heterodimer, bile acid lies in the beta-barrel, contacts printed are VtrC residues
As to the kind of experiment: isothermal titration calorimetry. Format: binding. For orientation: ITC needs no label: the signal is the heat of the interaction.

The target of assay [2] is T2, VtrA–VtrC periplasmic domain complex (heterodimer) (Vibrio parahaemolyticus, UniProt Q87GI3+Q87GI4, Q87GI3:Y151F).
T2 construct: gene VPA1333
As to the kind of experiment: biochemical. An excerpt:
(§1) isothermal titration calorimetry on VtrA–VtrC periplasmic domain complex (heterodimer)

Assay [3] concerns the target T3, VtrA–VtrC periplasmic domain complex (heterodimer) (Vibrio parahaemolyticus, UniProt Q87GI3+Q87GI4, Q87GI3:Y81A).
T3 construct: gene VPA1333
As to the kind of experiment: biochemical.
From the text: as §1

Assay [4] deals with T4, VtrA–VtrC periplasmic domain complex (heterodimer) (Vibrio parahaemolyticus, UniProt Q87GI3+Q87GI4, Q87GI3:H50A).
T4 construct: gene VPA1333
The assay is described as follows: biochemical.
From the text: as §1

Assay [5] has as its target T5, VtrA–VtrC periplasmic domain complex (heterodimer) (Vibrio parahaemolyticus, UniProt Q87GI3+Q87GI4, Q87GI3:S123A).
T5 construct: gene VPA1333
The assay is described as follows: biochemical.
From the text: as §1

Assay [6] concerns the target T6, VtrA–VtrC periplasmic domain complex (heterodimer) (Vibrio parahaemolyticus, UniProt Q87GI3+Q87GI4, Q87GI3:Y151A).
T6 construct: gene VPA1333
As to the kind of experiment: biochemical.
From the text: as §1

The target of assay [7] is T1, VtrA–VtrC periplasmic domain complex (heterodimer). The assay is described as follows: isothermal titration calorimetry; crystal structure of the complex also solved ([…] Å). Format: binding.

Usually Kd stands for the concentration at which binding is half-saturated.

Molecules are shown by their SMILES.

Compound `C[C@H](CCC(=O)O)[C@H]1CC[C@H]2[C@@H]3[C@H](O)C[C@@H]4C[C@H](O)CC[C@]4(C)[C@H]3C[C@H](O)[C@]12C` [CA, cholate] yielded a Kd in assay [1] of 377 nM.
As to `C[C@H](CCC(=O)O)[C@H]1CC[C@H]2[C@@H]3[C@H](O)C[C@@H]4C[C@H](O)CC[C@]4(C)[C@H]3CC[C@]12C` [CDC, chenodeoxycholate], the Kd in assay [2] worked out at 1170 nM; in assay [3], 731 nM; in assay [4], 904 nM; in assay [5] it was 202 nM; in assay [6] it was 2280 nM; in assay [7], 310 nM.
In assay [1], `C[C@H](CCC(=O)O)[C@H]1CC[C@H]2[C@@H]3CC[C@@H]4C[C@H](O)CC[C@]4(C)[C@H]3C[C@H](O)[C@]12C` [DC, deoxycholate] came in with a Kd of 232 nM.
In turn, `C[C@H](CCC(=O)NCC(=O)O)[C@H]1CC[C@H]2[C@@H]3[C@H](O)C[C@@H]4C[C@H](O)CC[C@]4(C)[C@H]3CC[C@]12C` [GCDC, glycochenodeoxycholate] registered a Kd in assay [1] of 211 nM.
Take `C[C@H](CCC(=O)NCCS(=O)(=O)O)[C@H]1CC[C@H]2[C@@H]3CC[C@@H]4C[C@H](O)CC[C@]4(C)[C@H]3C[C@H](O)[C@]12C` [TDC, taurodeoxycholate]: the dissociation constant Kd in assay [1] is 129 nM; in assay [2], 873 nM; in assay [3] it was 1190 nM; in assay [4], 301 nM; in assay [5] it was 91.2 nM; in assay [6], 2500 nM.
